Patent US20250179066A1, “ZWITTERIONIC ANTIBACTERIAL COMPOUNDS” (Hoffmann-La Roche Inc., priority 2022, published 2025)
Where a name gives a salt, the structure may show the parent alone.

System: Acinetobacter baumannii ATCC17961
Assay: Antimicrobial susceptibility testing: 90% growth inhibitory concentration (IC90) determination
Assay type: cell-based
Conditions: Acinetobacter baumannii, ATCC17961, 16 h, 90% growth inhibitory concentration against Acinetobacter baumannii ATCC17961, Iso-Sensitest broth, OD 600 nm over 16 h; read-out: ATCC 17961 IC90
Method in brief: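 OD600 monitored each minute over 16 h at 35±2° C for bacteria (~5×10^5 CFU/mL final) in Iso-Sensitest medium with 10-point twofold compound series (e.g. 10-0.0195 μM final). Concentration giving 90% growth inhibition in log phase reported as IC90.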

**Q.** Which IC90 does the source give for `Cn1c(-c2cn(-c3ccc4c(cc(C(=O)N5CCOCC5)n4C)n3)nc2C(F)(F)F)cnc1C(=O)Nc1ccc(C(=O)N2CCN(C(=O)[C@H]3CC[N@@+](CCCN)(CC(=O)O)CC3)CC2)c(Cl)c1` [Example 103, cis-2-[1-(3-aminopropyl)-4-[4-[2-chloro-4-[[1-methyl-5-[1-[1-methyl-2-(morpholine-4-carbonyl)pyrrolo[3,2-b]pyridin-5-yl]-3-(trifluoromethyl)pyrazol-4-yl]imidazole-2-carbonyl]amino]benzoyl]piperazine-1-carbonyl]piperidin-1-ium-1-yl]acetic acid;formate] here?
**A.** 604 nM

**Q.** With `Cn1c(-c2cn(-c3ccc4[nH]c(C(CO)CO)cc4n3)nc2C(F)(F)F)cnc1C(=O)Nc1ccc(C(=O)N2CCN(C(=O)[C@H]3CC[N@@+](CCCN)(CC(=O)O)CC3)CC2)c(Cl)c1` [Example 102, cis-2-[1-(3-aminopropyl)-4-[4-[2-chloro-4-[[5-[1-[2-[2-hydroxy-1-(hydroxymethyl)ethyl]-1H-pyrrolo[3,2-b]pyridin-5-yl]-3-(trifluoromethyl)pyrazol-4-yl]-1-methyl-imidazole-2-carbonyl]amino]benzoyl]piperazine-1-carbonyl]piperidin-1-ium-1-yl]acetic acid;formate] as the compound, how does the IC90 read?
**A.** 445 nM

**Q.** With `Cn1c(-c2cn(-c3ccc(CN)cn3)nc2C(F)(F)F)cnc1C(=O)Nc1ccc(C(=O)N2CCN(C(=O)C3CC[N+](CC(=O)O)(CC4CNC4)CC3)CC2)c(Cl)c1` (stereo not shown) [Example 21, 2-[4-[4-[4-[[5-[1-[5-(Aminomethyl)-2-pyridyl]-3-(trifluoromethyl)pyrazol-4-yl]-1-methyl-imidazole-2-carbonyl]amino]-2-chloro-benzoyl]piperazine-1-carbonyl]-1-(azetidin-3-ylmethyl)piperidin-1-ium-1-yl]acetic Acid.1:1 formic Acid.1:1 formate] as the compound, how does the IC90 read?
**A.** 320 nM

**Q.** Which IC90 does the source give for `Cn1c(-c2cn(-c3ccc4[nH]ccc4n3)nc2C(F)(F)F)cnc1C(=O)Nc1ccc(C(=O)N2CCN(C(=O)[C@H]3CC[N@+](CC(=O)O)(CC4CNC4)CC3)CC2)c(Cl)c1` [Example 27, cis-2-[1-(azetidin-3-ylmethyl)-4-[4-[2-chloro-4-[[1-methyl-5-[1-(1H-pyrrolo[3,2-b]pyridin-5-yl)-3-(trifluoromethyl)pyrazol-4-yl]imidazole-2-carbonyl]amino]benzoyl]piperazine-1-carbonyl]piperidin-1-ium-1-yl]acetic acid. 1:1 2,2,2-trifluoroacetate] here?
**A.** 360 nM

**Q.** How did the IC90 turn out when `CN(C)C(=O)c1cc2cnc(-n3cc(-c4cnc(C(=O)Nc5ccc(C(=O)N6CCN(C(=O)[C@H]7CC[N@+](CC(=O)O)(CC8CNC8)CC7)CC6)c(Cl)c5)n4C)c(C(F)(F)F)n3)cc2[nH]1` [Example 123, cis-2-[1-(azetidin-3-ylmethyl)-4-[4-[2-chloro-4-[[5-[1-[2-(dimethylcarbamoyl)-1H-pyrrolo[3,2-c]pyridin-6-yl]-3-(trifluoromethyl)pyrazol-4-yl]-1-methyl-imidazole-2-carbonyl]amino]benzoyl]piperazine-1-carbonyl]piperidin-1-ium-1-yl]acetic acid. 1:1 2,2,2-trifluoroacetate] was run?
**A.** 216 nM

**Q.** `Cn1c(-c2cn(-c3ccc4[nH]c(CO)cc4n3)nc2C(F)(F)F)cnc1C(=O)Nc1ccc(C(=O)N2CCN(C(=O)C3CC[N+](CCCN)(CC(=O)O)CC3)CC2)c(Cl)c1` (stereo not shown) [Example 145] was tested. Which IC90 did it give?
**A.** 205 nM

**Q.** Which IC90 does the source give for `Cn1c(-c2cn(-c3cc4[nH]c(C(=O)NO)cc4cn3)nc2C(F)(F)F)cnc1C(=O)Nc1ccc(C(=O)N2CCN(C(=O)[C@H]3CC[N@+](CC(=O)O)(CC4CNC4)CC3)CC2)c(Cl)c1` [Example 125, cis-2-[1-(azetidin-3-ylmethyl)-4-[4-[2-chloro-4-[[5-[1-[2-(hydroxycarbamoyl)-1H-pyrrolo[3,2-c]pyridin-6-yl]-3-(trifluoromethyl)pyrazol-4-yl]-1-methyl-imidazole-2-carbonyl]amino]benzoyl]piperazine-1-carbonyl]piperidin-1-ium-1-yl]acetic acid. 1:1 2,2,2-trifluoroacetate] here?
**A.** 361 nM

**Q.** For `CNc1ccc(-n2cc(-c3cnc(C(=O)Nc4ccc(C(=O)N5CCN(C(=O)[C@H]6CC[N@+](CC(=O)O)(CC7CNC7)CC6)CC5)c(C)c4)n3C)c(C(F)(F)F)n2)c(F)c1` [Example 107, cis-2-[1-(azetidin-3-ylmethyl)-4-[4-[4-[[5-[1-[2-fluoro-4-(methylamino)phenyl]-3-(trifluoromethyl)pyrazol-4-yl]-1-methyl-imidazole-2-carbonyl]amino]-2-methyl-benzoyl]piperazine-1-carbonyl]piperidin-1-ium-1-yl]acetic acid;2,2,2-trifluoroacetate], which IC90 is on record?
**A.** 175 nM

**Q.** Which IC90 does the source give for `CC(Cn1ccc2nc(-n3cc(-c4cnc(C(=O)Nc5ccc(C(=O)N6CCN(C(=O)[C@H]7CC[N@+](CC(=O)O)(CC8CNC8)CC7)CC6)c(Cl)c5)n4C)c(C(F)(F)F)n3)ccc21)C(N)=O` (stereo partly shown) [Example 161, 2-[4-[4-[4-[[5-[1-[1-(3-amino-2-methyl-3-oxo-propyl)pyrrolo[3,2-b]pyridin-5-yl]-3-(trifluoromethyl)pyrazol-4-yl]-1-methyl-imidazole-2-carbonyl]amino]-2-chloro-benzoyl]piperazine-1-carbonyl]-1-(azetidin-3-ylmethyl)piperidin-1-ium-1-yl]acetic acid;2,2,2-trifluoroacetate] here?
**A.** 390 nM

**Q.** `CNCCNc1ccc(-n2cc(-c3cnc(C(=O)Nc4ccc(C(=O)N5CCN(C(=O)C6CC[N+](CC(=O)O)(CC7CNC7)CC6)CC5)c(Cl)c4)n3C)c(C(F)(F)F)n2)nc1` (stereo not shown) [Example 4, 2-[1-(azetidin-3-ylmethyl)-4-[4-[2-chloro-4-[[1-methyl-5-[1-[5-[2-(methylamino)ethylamino]-2-pyridyl]-3-(trifluoromethyl)pyrazol-4-yl]imidazole-2-carbonyl]amino]benzoyl]piperazine-1-carbonyl]piperidin-1-ium-1-yl]acetic acid. 1:1 2,2,2-trifluoroacetate] was tested. Which IC90 did it give?
**A.** 390 nM

**Q.** `Cn1c(-c2cn(-c3ccc4[nH]c(CN)cc4n3)nc2C(F)(F)F)cnc1C(=O)Nc1ccc(C(=O)N2CCN(C(=O)[C@H]3CC[N@+](CC(=O)O)(CC4CNC4)CC3)CC2)c(Cl)c1` [Example 184, cis-2-[4-[4-[4-[[5-[1-[2-(aminomethyl)-1H-pyrrolo[3,2-b]pyridin-5-yl]-3-(trifluoromethyl)pyrazol-4-yl]-1-methyl-imidazole-2-carbonyl]amino]-2-chloro-benzoyl]piperazine-1-carbonyl]-1-(azetidin-3-ylmethyl)piperidin-1-ium-1-yl]acetic acid;formate] was tested. Which IC90 did it give?
**A.** 64.2 nM

**Q.** With `Cc1cc(NC(=O)c2ncc(-c3cn(-c4ccc5[nH]ccc5n4)nc3C(F)(F)F)n2C)ccc1C(=O)N1CCN(C(=O)[C@H]2CC[N@+](CC(=O)O)(CC3CNC3)CC2)CC1` [Example 132, cis-2-[1-(azetidin-3-ylmethyl)-4-[4-[2-methyl-4-[[1-methyl-5-[1-(1H-pyrrolo[3,2-b]pyridin-5-yl)-3-(trifluoromethyl)pyrazol-4-yl]imidazole-2-carbonyl]amino]benzoyl]piperazine-1-carbonyl]piperidin-1-ium-1-yl]acetic acid. 1:1 2,2,2-trifluoroacetate] as the compound, how does the IC90 read?
**A.** 139 nM

**Q.** Which IC90 does the source give for `Cn1c(-c2cn(-c3cc4[nH]c(C(=O)N5CC6(CCOCC6)C5)cc4cn3)nc2C(F)(F)F)cnc1C(=O)Nc1ccc(C(=O)N2CCN(C(=O)[C@H]3CC[N@+](CC(=O)O)(CC4CNC4)CC3)CC2)c(Cl)c1` [Example 113, cis-2-[1-(azetidin-3-ylmethyl)-4-[4-[2-chloro-4-[[1-methyl-5-[1-[2-(7-oxa-2-azaspiro[3.5]nonane-2-carbonyl)-1H-pyrrolo[3,2-c]pyridin-6-yl]-3-(trifluoromethyl)pyrazol-4-yl]imidazole-2-carbonyl]amino]benzoyl]piperazine-1-carbonyl]piperidin-1-ium-1-yl]acetic acid. 1:1 2,2,2-trifluoroacetate] here?
**A.** 707 nM

**Q.** How did the IC90 turn out when `COCCNc1ccc(-n2cc(-c3cnc(C(=O)Nc4ccc(C(=O)N5CCN(C(=O)[C@H]6CC[N@+](CC(=O)O)(CC7CNC7)CC6)CC5)c(F)c4)n3C)c(C(F)(F)F)n2)c(F)c1` [Example 124, cis-2-[1-(azetidin-3-ylmethyl)-4-[4-[2-fluoro-4-[[5-[1-[2-fluoro-4-(2-methoxyethylamino)phenyl]-3-(trifluoromethyl)pyrazol-4-yl]-1-methyl-imidazole-2-carbonyl]amino]benzoyl]piperazine-1-carbonyl]piperidin-1-ium-1-yl]acetic acid; formate] was run?
**A.** 103 nM

**Q.** `Cn1c(-c2cn(-c3ccc(N)cn3)nc2C(F)(F)F)cnc1C(=O)Nc1ccc(C(=O)N2CC3CC4(C(=O)C5CC[N+](CC(=O)O)(CC6CNC6)CC5)CC(C2)N34)c(Cl)c1` (stereo not shown) [Example 92, 2-[4-[3-[4-[[5-[1-(5-amino-2-pyridyl)-3-(trifluoromethyl)pyrazol-4-yl]-1-methyl-imidazole-2-carbonyl]amino]-2-chloro-benzoyl]-3,9-diazabicyclo[3.3.1]nonane-9-carbonyl]-1-(azetidin-3-ylmethyl)piperidin-1-ium-1-yl]acetic acid. 1:1 formate] was tested. Which IC90 did it give?
**A.** 1620 nM

**Q.** How did the IC90 turn out when `Cn1c(-c2cn(-c3cc4[nH]c(C(=O)N5CCS(=N)(=O)CC5)cc4cn3)nc2C(F)(F)F)cnc1C(=O)Nc1ccc(C(=O)N2CCN(C(=O)[C@H]3CC[N@+](CC(=O)O)(CC4CNC4)CC3)CC2)c(Cl)c1` [Example 114, cis-2-[1-(azetidin-3-ylmethyl)-4-[4-[2-chloro-4-[[5-[1-[2-(1-imino-1-keto-1,4-thiazinane-4-carbonyl)-1H-pyrrolo[3,2-c]pyridin-6-yl]-3-(trifluoromethyl)pyrazol-4-yl]-1-methyl-imidazole-2-carbonyl]amino]benzoyl]piperazine-1-carbonyl]piperidin-1-ium-1-yl]acetic acid. 1:1 2,2,2-trifluoroacetate] was run?
**A.** 637 nM
